One may read the MIC as the lowest concentration that inhibits growth of the organism.

The record followed here is patent US11299467B2 (Antabio SAS, priority 2017, dated 2022).

Test [1] has as its system NTBC024 (K. pneumoniae strain expressing VIM-19, TEM-1 and CTX-M-3). Put plainly: Meropenem MIC, broth micro-dilution, NTBC024. As to conditions: Klebsiella pneumoniae, read-out: MIC mero. The class given is cell-based. The procedure: (§1) The experiments were carried out using the ‘broth micro-dilution method’ according to the protocols M07-A8 established by the Clinical Laboratory Standards Institute (CLSI). Serial dilutions of the β-lactam antibiotic (Meropenem) were prepared in 96-well plates in cation-adjusted Mueller-Hinton broth (CAMHB); the concentration range was defined from 0.03 mg/L to 512 mg/L. The compounds were added at a constant concentration of 8 μg/mL. A bacterial inoculum of each strain (clinical isolates) was adjusted to a 0.5 McFarland turbidity standard in physiologic serum (0.9% NaCl), then diluted 1:100 in CAMHB and added to each well to give a final bacterial cell number of 5×10^5 CFU/well. After incubation for 18-20 hours in a heating chamber at 37° C., the growth inhibition was evaluated by the absence of any bacterial development.
(§2) Compounds of the invention were tested at a constant concentration of 8 μg/mL. […]
(§3) Experiments were carried out using the ‘broth micro-dilution method’ according to the protocols M07-A8 established by the Clinical Laboratory Standards Institute (CLSI). […] After incubation for 18-20 hours in a heating chamber at 37° C., the growth inhibition was evaluated by the absence of any bacterial development. […]
In general terms: Dilution methods test growth across graded concentrations, often in twofold steps.

Test [2] has as its system NTBC042 (E. coli strain expressing VIM-1, TEM-1, CTX-M-15, SHV-12). Put plainly: Meropenem MIC, broth micro-dilution, NTBC042. The class given is cell-based. The settings on record: Escherichia coli, read-out: MIC mero. The procedure:
as §1, §2, §3

Test [3] relates to NTBC055 (E. Coli strain expressing VIM-1). Briefly: Meropenem MIC, broth micro-dilution, NTBC055. The settings on record: Escherichia coli, read-out: MIC mero. In kind it is cell-based. How it is done:
as §1, §2, §3

Test [4] concerns NTBC019 (K. pneumonia strain expressing NDM-1, CTX-M-15 and OXA-181). Put plainly: Meropenem MIC, broth micro-dilution, NTBC019. In kind it is cell-based. The settings on record: Klebsiella pneumoniae. The procedure: as §1, with “Experiments” for “The experiments”, “meropenem (mero)” for “the β-lactam antibiotic (Meropenem)”, “compounds (the compound of Example 2, above, and/or WCK4234)” for “compounds”, “the” for “a constant”, “indicated in the table below.” for “of 8 μg/mL.”
(§4) NTBC019 (K. pneumonia strain expressing NDM-1, CTX-M-15 and OXA-181); NTBC185 (K. pneumonia strain expressing SHV-OSBL, TEM-OSBL, NDM-1 and OXA-48); NTBC186 (K. pneumonia strain expressing ACT-TYPE, VIM-1 and OXA-48); NTBC187 (K. pneumonia strain expressing SHV-OSBL, NDM-1 and OXA-48); and NTBC188 (K. pneumonia strain expressing NDM-1 and KPC-2).
(§5) Experiments were conducted as described above. Compounds (the compounds of Examples 2 and 26) were tested at 8 μg/mL. […] MIC values were determined for […]

Test [5] relates to NTBC185 (K. pneumonia strain expressing SHV-OSBL, TEM-OSBL, NDM-1 and OXA-48). Put plainly: Meropenem MIC, broth micro-dilution, NTBC185. In kind it is cell-based. The settings on record: Klebsiella pneumoniae, read-out: MIC mero. The procedure:
as §1, with “Experiments” for “The experiments”, “meropenem (mero)” for “the β-lactam antibiotic (Meropenem)”, “compounds (the compound of Example 2, above, and/or WCK4234)” for “compounds”, “the” for “a constant”, “indicated in the table below.” for “of 8 μg/mL.”
as §4

Test [6] concerns NTBC188 (K. pneumonia strain expressing NDM-1 and KPC-2). Briefly: Meropenem MIC, broth micro-dilution, NTBC188. In kind it is cell-based. The settings on record: Klebsiella pneumoniae. The procedure: as §1, with “Experiments” for “The experiments”, “meropenem (mero)” for “the β-lactam antibiotic (Meropenem)”, “compounds (the compound of Example 2, above, and/or WCK4234)” for “compounds”, “the” for “a constant”, “indicated in the table below.” for “of 8 μg/mL.”
as §4, §5

Another test has as its system K. pneumoniae NTBC104. Briefly: In vivo efficacy, mouse thigh infection with K. pneumoniae NTBC104. The settings on record: meropenem at 30 mg/kg alone, 9 hours post infection. The procedure:
Mice were infected in the thigh with K. pneumoniae NTBC104. […] The MIC of meropenem in the presence of 8 ug/mL of the compound of Example 2 is 4 ug/mL.
At the end of the experiment (9 hours post infection) the animals were sacrificed and the numbers of colony forming units (CFUs) were measured in order to quantify bacterial load (extent of the infection).

Test [7] relates to panel of clinical Enterobacteriacae strains expressing NDM enzymes (196 isolates). Put plainly: Extended MIC profiling vs MBL-expressing clinical strains (meropenem potentiation). As to conditions: 196 NDM-expressing clinical isolates. In kind it is cell-based. The source says:
By contrast, the same concentration of meropenem alone is only capable of stopping the growth of <1% of the strains and within the parameters of the experiment the cessation of growth of 90% of all strains could not be achieved with meropenem alone.
To assess the coverage and potentiation of meropenem by compounds of the invention, the susceptibility of around 200 clinical isolates was examined. The criteria for selection into the panel was that the clinical strain was resistant to carbapenems, but only expressing NDM enzyme variants and not serine betalactamase enzymes with carbapenemase activity such as KPC or OXA.

The structures appear in SMILES notation. ≈ marks a conversion by molar mass, not a printed value. Where two headings read alike, the source gives them in different places. Some results are limits rather than exact numbers.

As to `C[C@@H](O)[C@H]1C(=O)N2C(C(=O)O)=C(S[C@@H]3CN[C@H](C(=O)N(C)C)C3)[C@H](C)[C@H]12` [Meropenem], the MIC in test [1] is 16 µg/mL; in test [2] it was 8 µg/mL; in test [3] it was 4 µg/mL; in test [4] (read-out: MIC mero), 64 µg/mL (≈ 167 µM); in test [4] (read-out: MIC, NTBC19), 8 to 512 µg/mL (≈ 20.9 to 1340 µM); in test [5], 128 µg/mL (≈ 334 µM). Also, the minimal inhibitory concentration (MIC) in test [6] (read-out: MIC mero) was 32 µg/mL (≈ 83.4 µM); in test [6] (read-out: MIC, NTBC188) it was 8 to 512 µg/mL (≈ 20.9 to 1340 µM). In the test with K. pneumoniae NTBC104, the “bacterial load (CFUs)” value is “reduced bacterial load slightly”. In addition, the “strains whose growth is stopped by the same concentration (8 ug/mL) of meropenem alone” value in test [7] was less than 1%.
